Drawing on US6906198B1, “Antipicornaviral compounds, their preparation and use” (Agouron Pharmaceuticals, Inc., priority 1998, dated 2005), this text covers CC50, EC50 and melting point for eleven compounds.

A short description of series [1]: Cytotoxicity in mock-infected H1-HeLa cells (antirhinoviral assay, XTT). The format is cell-based. To be noted: human, 50% cytotoxic dose. The procedure:
(§1) H1-HeLa cells were infected with HRV-14 at a multiplicity of infection (m.o.i.) of 0.13 (virus particles/cell) or mock-infected with medium only. Infected or mock-infected cells were resuspended at 8×10^5 cells per mL, and incubated with appropriate concentrations of the compounds to be tested. Two days later, XTT/PMS was added to test plates and the amount of formazan produced was quantified spectrophotometrically at 450/650 nm. The EC50 value was calculated as the concentration of compound that increased the percentage of formazan production in compound-treated, virus-infected cells to 50% of that produced by compound-free, mock-infected cells. The 50% cytotoxic dose (CC50) was calculated as the concentration of compound that decreased the percentage of formazan produced in compound-treated, mock-infected cells to 50% of that produced by compound-free, mock-infected cells. The therapeutic index (TI) was calculated by dividing the CC50 value by the EC50 value.
(§2) All strains of human rhinovirus (HRV) for use in this assay were purchased from American Type Culture Collection (ATCC), except for HRV serotype-14 (produced from the infectious cDNA clone constructed by Dr. Robert Rueckert, Institute for Molecular Virology, University of Wisconsin, Madison, Wis.). HRV stocks were propagated and viral assays were performed in H1-HeLa cells (ATCC). Cells were grown in minimal essential medium with 10% fetal bovine serum, available from Life Technologies (Gaithersburg, Md.).
In general terms: Formazan colour is commonly taken as a measure of viable cells.

Series [2] is described as follows: Cytotoxicity in uninfected H1-HeLa cells (anticoxsackieviral assay, XTT). Conditions: human; 50% cytotoxic dose, uninfected H1-HeLa cells (Table 4). Format: cell-based. The procedure: (§3) Coxsackievirus types A-21 (CAV-21) and B3 (CVB-3) were purchased from American Type Culture Collection (ATCC, Rockville, Md.). Virus stocks were propagated and antiviral assays were performed in H1-HeLa cells (ATCC). Cells were grown in minimal essential medium with 10% fetal bovine serum (Life Technologies, Gaithersburg, Md.).
(§4) The ability of compounds to protect cells against either CAV-21 or CVB-3 infection was measured by the XTT dye reduction method. This method is described in Weislow et al., J. Natl. Cancer Inst. 1989, vol. 81, 577-586. H1-HeLa cells were infected with CAV-21 or CVB-3 at a multiplicity of infection (m.o.i.) of 0.025 or 0.075, respectively, or mock-infected with medium only. H1-HeLa cells were plated at 4×10^4 cells per well in a 96-well plate and incubated with appropriate concentrations of the test compound. One day (CVB-3) or two days (CAV-21) later, XTT/PMS was added to test plates and the amount of formazan produced was quantified spectrophotometrically at 450/650 nm. The EC50 was calculated as the concentration of compound that increased the formazan production in compound-treated, virus-infected cells to 50% of that produced by compound-free, uninfected cells. The 50% cytotoxic dose (CC50) was calculated as the concentration of compound that decreased formazan production in compound-treated, uninfected cells to 50% of that produced in compound-free, uninfected cells. The therapeutic index (TI) was calculated by dividing the CC50 by the EC50.

The nature of series [3]: Cytotoxicity in uninfected MRC-5 cells (anti-echoviral/-enteroviral assay, XTT). Format: cell-based. Conditions: human, 50% cytotoxic dose. The procedure: Echovirus type 11 (EV 11) and enterovirus type 70 (EV 70) were purchased from ATCC (Rockville, Md.). Virus stocks were propagated and antiviral assays were performed in MRC-5 cells (ATCC). Cells were grown in minimal essential medium with 10% fetal bovine serum (Life Technologies, Gaithersburg, Md.).
The ability of compounds to protect cells against either EV 11 or EV 70 infection was measured by the XTT dye reduction method (Weislow et al., J. Natl. Cancer Inst. 1989, vol. 81, 577-586). MRC-5 cells were infected with EV 11 or EV 70 at an m.o.i. of 0.003 or 0.004, respectively, or mock-infected with medium only. Infected or uninfected cells were added at 1×10^4 cells per well and incubated with appropriate concentrations of compound. Four days later, XTT/PMS was added to test plates, and the amount of formazan produced was quantified spectrophotometrically at 450/650 nm. The EC50 was calculated as the concentration of compound that increased the formazan production in compound-treated, virus-infected cells to 50% of that produced by compound-free, uninfected cells. The 50% cytotoxic dose (CC50) was calculated as the concentration of compound that decreased formazan production in compound-treated, uninfected cells to 50% of that produced in compound-free, uninfected cells. The therapeutic index (TI) was calculated by dividing the CC50 by the EC50.

Series [4] deals with HRV-14. Kind of series: Antirhinoviral H1-HeLa cell culture assay (XTT), HRV-14. Format: cell-based, human rhinovirus. The method, then: (§5) Antirhinoviral H1-HeLa Cell Culture Assay
(§6) In this cell protection assay, the ability of compounds to protect cells against HRV infection was measured by the XTT dye reduction method, which is described in Weislow et al., J. Natl. Cancer Inst. 1989, vol. 81, 577-586.
as §1, §2
The compounds were tested against control compounds WIN 51711, WIN 52084, and WIN 54954 (obtained from Sterling-Winthrop Pharmaceuticals), Pirodavir (obtained from Janssen Pharmaceuticals), and Pleconaril (prepared according to the method described in Diana et al., J. Med. Chem 1995, vol. 38, 1355). Antiviral data obtained for the test compounds are shown in Tables 1 and 3, where all data are for HRV serotype-14 unless otherwise noted in parentheses.

Series [5] deals with H1-HeLa cells. Kind of series: Cytotoxicity in mock-infected H1-HeLa cells (antirhinoviral assay, XTT). Format: cell-based. Conditions: 50% cytotoxic dose. The method, then: as §1, §2
For series [6], the system named is HRV serotype 12. Nature of the series: Antirhinoviral H1-HeLa cell culture assay (XTT), HRV-12. Format: cell-based. To be noted: Human rhinovirus sp., H1-HeLa cells. The procedure: as §5, §6
as §1, with “value. […]” for “value.”

For series [7], the system named is HRV serotype 25. Kind of series: Antirhinoviral H1-HeLa cell culture assay (XTT), HRV-25. The format is cell-based. Conditions: Human rhinovirus sp., H1-HeLa cells. The method, then: as §5, §6
as §1, with “value. […]” for “value.”

Series [8] has as its system HRV serotype 30. Nature of the series: Antirhinoviral H1-HeLa cell culture assay (XTT), HRV-30. The format is cell-based. Conditions: Human rhinovirus sp., H1-HeLa cells. The method, then: as §5, §6
as §1, with “value. […]” for “value.”

Series [9] relates to HRV serotype 38. Nature of the series: Antirhinoviral H1-HeLa cell culture assay (XTT), HRV-38. The format is cell-based. To be noted: Human rhinovirus sp., H1-HeLa cells. The method, then: as §5, §6
as §1, with “value. […]” for “value.”

In series [10] the test system is HRV serotype 87. Kind of series: Antirhinoviral H1-HeLa cell culture assay (XTT), HRV-87. Conditions: Human rhinovirus sp., H1-HeLa cells. Format: cell-based. The procedure:
as §5, §6
as §1, with “value. […]” for “value.”

In series [11] the test system is HRV serotype 1A. Nature of the series: Antirhinoviral H1-HeLa cell culture assay (XTT), HRV-1A. Format: cell-based, human rhinovirus. To be noted: H1-HeLa cells. The procedure: as §5, §6, §1, §2
(§7) The compounds were tested against control compounds WIN 51711, WIN 52084, and WIN 54954 (obtained from Sterling-Winthrop Pharmaceuticals), Pirodavir (obtained from Janssen Pharmaceuticals), and Pleconaril (prepared according to the method described in Diana et al., J. Med. Chem 1995, vol. 38, 1355). […]

Series [12] deals with HRV serotype 10. Kind of series: Antirhinoviral H1-HeLa cell culture assay (XTT), HRV-10. Conditions: H1-HeLa cells. The format is cell-based, human rhinovirus. The procedure:
as §5, §6, §1, §2, §7

Series [13] concerns Coxsackievirus type A-21 (CAV-21). Nature of the series: Anticoxsackieviral cell culture assay (XTT), CAV-21. The format is cell-based. To be noted: CAV-21, H1-HeLa cells; read-out: EC50. The method, then: (§8) Anticoxsackieviral Cell Culture Assay
as §3
as §4, with “The 50% cytotoxic dose (CC50) was calculated as the concentration of compound that decreased formazan production in compound-treated, uninfected cells to 50% of that produced in compound-free, uninfected cells.” left out, “EC50. […]” for “EC50.”

The test system of series [14] is Coxsackievirus type B3 (CVB-3). Nature of the series: Anticoxsackieviral cell culture assay (XTT), CVB-3. The format is cell-based. To be noted: CVB-3, H1-HeLa cells; read-out: EC50. The method, then: as §8, §3
as §4, with “The 50% cytotoxic dose (CC50) was calculated as the concentration of compound that decreased formazan production in compound-treated, uninfected cells to 50% of that produced in compound-free, uninfected cells.” left out, “EC50. […]” for “EC50.”

Series [15] concerns H1-HeLa cells. Kind of series: Cytotoxicity in uninfected H1-HeLa cells (anticoxsackieviral assay, XTT). Conditions: 50% cytotoxic dose, uninfected H1-HeLa cells (Table 4). Format: cell-based. The method, then: as §3, §4
[16] abbreviates: HRV serotype-14, H1-HeLa cells (Table 3), read-out: EC50.
Where [17] appears, read: HRV serotype-14, H1-HeLa cells (Table 1), read-out: Cell Protection EC50.

Read-outs that look alike come from different tables or passages of the source. Bounds are passed on as bounds.

Take `Cc1cc(CCCOc2c(C)cc(-c3noc(C(F)(F)F)n3)cc2C)on1` [Pleconaril, reference compound]: the CC50 (usually the concentration giving 50% cytotoxicity) at 2 days in series [1] is more than 10000 nM. The compound further returned a 50% cytotoxic concentration (CC50) in series [2] of more than 10000 nM. This compound gave a CC50 at 4 days in series [3] of more than 10000 nM.
In the case of `Cc1cc(CCCCCCCOc2ccc(C3=NCCO3)cc2)on1` [WIN 51711, reference compound], the EC50 (usually the concentration at which the effect is half-maximal) in series [4] (setting [16]) worked out at 780 nM. Besides, the CC50 in [5] was more than 60000 nM.
Regarding `CCOC(=O)/C=C/[C@H](CCC(N)=O)NC(=O)[C@H](Cc1ccccc1)NC(=O)[C@H](CC(C)C)NC(=O)c1cc(C)on1` [(A-1), Ethyl-3-((5′-Methylisoxazole-3′-carbonyl)-L-Leu-L-Phe-L-Gln)-E-Propenoate], the melting point – broadly, the temperature of the solid-liquid transition – was in the range of 223 to 225 °C. This compound registered a CC50 at 2 days in [1] of more than 100000 nM.
The compound `CCOC(=O)/C=C/[C@H](C[C@@H]1CCNC1=O)NC(=O)[C@@H](CC(=O)[C@@H](NC(=O)c1cc(C)on1)C(C)C)Cc1ccc(F)cc1` [(B-2), Ethyl-3-{(5′-Methylisoxazole-3′-carbonyl)-L-ValΨ(COCH2)-L-(4-F-Phe)-L-((S)-Pyrrol-Ala)}-E-Propenoate] had a CC50 at 2 days in series [1] of more than 100000 nM. For the same compound, the CC50 in series [2] is more than 100000 nM. Moreover, the CC50 at 4 days in [3] is more than 100000 nM.
`CCOC(=O)/C=C/[C@H](C[C@@H]1CCNC1=O)NC(=O)[C@H](Cc1ccc(F)cc1)NC(=O)[C@@H](NC(=O)c1cc(C)on1)C(C)(C)C` [(A-7), Ethyl-3-{(5′-Methylisoxazole-3′-carbonyl)-L-α-(t-Butyl-Gly)-L-(4-F-Phe)-L-((S)-Pyrrol-Ala)}-E-Propenoate]: the EC50 in series [6] turned out to be 70 nM; in series [7] it was 200 nM; in [8], 90 nM; in series [9] it was 170 nM; in [10] it was 590 nM. Moreover, the CC50 at 2 days in series [1] is more than 10000 nM.
Regarding `CCOC(=O)/C=C/[C@H](CCC(N)=O)NC(=O)[C@H](Cc1ccc(C)cc1)NC(=O)[C@@H](NC(=O)c1ccc[nH]1)C(C)(C)C` [(A-16)], the EC50 in series [4] (setting [17]) was determined as 450 nM; in series [4] (setting [16]), 450 nM; in [11] it was 4800 nM; in series [12], 4500 nM.
As for `CCOC(=O)c1ccc(OCCC2CCN(c3ccc(C)nn3)CC2)cc1` [Pirodavir, reference compound], in series [1], the CC50 at 2 days is more than 10000 nM. In addition, the CC50 in series [2] is more than 100000 nM. This compound had a CC50 at 4 days in [3] of more than 10000 nM.
On to `Cc1cc(CCCCCOc2c(Cl)cc(C3=NCCO3)cc2Cl)on1` [WIN 54954, reference compound], for which the EC50 in [4] (setting [16]) is 2130 nM; in [13], more than 100000 nM; in series [14] it was more than 100000 nM. Further, the values for the CC50 in series [5] and in series [15] were more than 63000 nM and more than 100000 nM, respectively.
As to `Cc1cc(CCCCCCCOc2ccc(C3=N[C@@H](C)CO3)cc2)on1` [WIN 52084, reference compound], the EC50 in series [4] (setting [16]) amounted to 70 nM. For the same compound, the CC50 in series [5] was more than 10000 nM.
With `CCOC(=O)/C=C/[C@H](CCC(N)=O)NC(=O)[C@@H](CC(=O)[C@@H](NC(=O)c1cc(C)on1)C(C)C)Cc1ccc(F)cc1` [(B-1), Ethyl-3-{(5′-Methylisoxazole-3′-carbonyl)-L-ValΨ(COCH2)-L-(4-F-Phe)-L-Gln}-E-Propenoate], the melting point is 220 °C (dec.). In [1], this compound yielded a half-maximal cytotoxic concentration (CC50) at 2 days of more than 100000 nM.
Consider `CCOC(=O)/C=C/[C@H](CCC(N)=O)NC(=O)[C@H](Cc1ccc(C)cc1)NC(=O)[C@@H](NC(=O)C1SCCS1)C(C)(C)C` [(A-15)], for which the EC50 in [4] (setting [17]) amounted to 220 nM; in [4] (setting [16]), 220 nM; in series [11], 7100 nM; in [12], 2700 nM.
